Measured values reported in paper PMC9713482, “Discovery of (R)-2-amino-3-triazolpropanoic acid derivatives as NMDA receptor glycine site agonists with GluN2 subunit-specific activity” (Frontiers in Chemistry, 2022).

How the values were obtained:
Experiment in all cases: cell-based
[1] = biological target: T1, GluN1/2B (Rattus norvegicus, UniProt P35439); set-up: species or system Xenopus laevis oocytes; two-electrode voltage-clamp recording of NMDA receptor agonist responses with 300 uM glutamate, relative to maximal glycine response; settings: Oocyte; 300 uM glutamate; read-out: % activation
T1 construct: gene Grin1; full-length subunits co-expressed from cRNA (1:2) in Xenopus laevis oocytes; GluN2B ORF altered only silently; heterotetramer; with Glutamate receptor ionotropic, NMDA 2B
Protocol: (§1) Oocytes were injected with cRNAs for GluN1 and GluN2 subunits at a 1:2 ratio, and incubated as previously described ([Hansen et al., 2013]). The injected oocytes were used for two-electrode voltage-clamp recordings at room temperature (21–23°C) after 2–4 days of expression. as previously described ([Hansen et al., 2013]). The holding potential was −40 mV in all recordings. The recording solution was comprised of (in mM) 90 NaCl, 1 KCl, 10 HEPES, 0.5 BaCl2 and 0.01 EDTA (pH 7.4). For experiments with GluN1/2A or GluN1/2B receptors, the oocytes were injected at least 10 min before recordings with 50 mM BAPTA (30–50 nL) to minimize use-dependent increases in response amplitudes ([Williams, 1993]). Compounds were dissolved as 20–100 mM stock solutions in DMSO, and DMSO concentrations were constant in all recording solutions and never exceeded 1%. GraphPad Prism (GraphPad Software, La Jolla, CA) was used to analyze agonist concentration-response data. Briefly, the data for each oocyte were fitted to the following Hill equation, I = Rmax/(1 + 10^((logEC50-log [A])*nH)). […] The pharmacological properties of analogues 13a-j and 16 were determined with two-electrode voltage-clamp recordings of responses from recombinant NMDA receptor subtypes (Table 1; Figure 4). Compound 13f was identified as agonist with lower maximal response relative to glycine (Rmax) at GluN1/2A (47%) and GluN1/2B (23%), but Rmax similar to glycine at GluN1/2C (94%) and GluN1/2D (96%).

[2] = biological target: T2, GluN1/2C (Rattus norvegicus, UniProt P35439); set-up: species or system Xenopus laevis oocytes; two-electrode voltage-clamp recording of NMDA receptor agonist responses with 300 uM glutamate, relative to maximal glycine response; settings: Oocyte; 300 uM glutamate; read-out: % activation
T2 construct: gene Grin1; full-length subunits co-expressed from cRNA (1:2) in Xenopus laevis oocytes; heterotetramer (human Q14957 was used only for modelling); with Glutamate receptor ionotropic, NMDA 2C
Protocol: as §1

[3] = biological target: T3, GluN1/2D (Rattus norvegicus, UniProt P35439); set-up: species or system Xenopus laevis oocytes; two-electrode voltage-clamp recording of NMDA receptor agonist responses with 300 uM glutamate, relative to maximal glycine response; settings: Oocyte; 300 uM glutamate; read-out: % activation
T3 construct: gene Grin1; full-length subunits co-expressed from cRNA (1:2) in Xenopus laevis oocytes; heterotetramer; with Glutamate receptor ionotropic, NMDA 2D
Protocol: as §1

[4] = biological target: T4, GluN1/2A (Rattus norvegicus, UniProt P35439); set-up: species or system Xenopus laevis oocytes; Two-electrode voltage-clamp concentration-response of glycine-site agonists with saturating glutamate; efficacy relative to 100 uM glycine; settings: Oocyte; fitted maximum relative to 100 uM glycine, saturating glutamate; read-out: Rel. efficacy (%) / 99.6672727273 / 96.0542857143
T4 construct: gene Grin1; full-length subunits co-expressed from cRNA (GluN1:GluN2 1:2) in Xenopus laevis oocytes; heterotetramer; glycine site in GluN1; with Glutamate receptor ionotropic, NMDA 2A
Description: (§2) For expression in Xenopus laevis oocytes purchased from Rob Weymouth (Xenopus 1, Dexter, MI), cDNAs encoding rat NMDA receptor subunits, GluN1-1a (Genbank accession number U11418 and U08261), GluN2A (D13211), GluN2B (U11419), GluN2C (M91563), and GluN2D (L31611), were used to produce cRNAs using the mMessage mMachine kit (Ambion, Life Technologies, Paisley, United Kingdom) according to the manufacturer’s protocol. The open reading frame of the GluN2B subunit was altered without changing the amino acid sequence to remove a termination site for the T7 RNA polymerase used to synthesize cRNA ([Hansen et al., 2014]). Oocytes were injected with cRNAs for GluN1 and GluN2 subunits at a 1:2 ratio, and incubated as previously described ([Hansen et al., 2013]). The injected oocytes were used for two-electrode […] recordings at room temperature (21–23°C) after 2–4 days of expression. as previously described ([Hansen et al., 2013]). The holding potential was −40 mV in all recordings. The recording solution was comprised of (in mM) 90 NaCl, 1 KCl, 10 HEPES, 0.5 BaCl2 and 0.01 EDTA (pH 7.4). For experiments with GluN1/2A or GluN1/2B receptors, the oocytes were injected at least 10 min before recordings with 50 mM BAPTA (30–50 nL) to minimize use-dependent increases in response amplitudes ([Williams, 1993]). Compounds were dissolved as 20–100 mM stock solutions in DMSO, and DMSO concentrations were constant in all recording solutions and never exceeded 1%. GraphPad Prism (GraphPad Software, La Jolla, CA) was used to analyze agonist concentration-response data. Briefly, the data for each oocyte were fitted to the following Hill equation, I = Rmax/(1 + 10^((logEC50-log [A])*nH)).

[5] = biological target: T1, GluN1/2B; set-up: species or system Xenopus laevis oocytes; Two-electrode voltage-clamp concentration-response of glycine-site agonists with saturating glutamate; efficacy relative to 100 uM glycine; settings: Oocyte; fitted maximum relative to 100 uM glycine, saturating glutamate; read-out: Rel. efficacy (%) / 100 / 100.0775
Description: as §2

[6] = biological target: T2, GluN1/2C; set-up: species or system Xenopus laevis oocytes; Two-electrode voltage-clamp concentration-response of glycine-site agonists with saturating glutamate; efficacy relative to 100 uM glycine; settings: Oocyte; fitted maximum relative to 100 uM glycine, saturating glutamate; read-out: Rel. efficacy (%) / 100 / 111.08
Description: as §2

[7] = biological target: T3, GluN1/2D; set-up: species or system Xenopus laevis oocytes; Two-electrode voltage-clamp concentration-response of glycine-site agonists with saturating glutamate; efficacy relative to 100 uM glycine; settings: Oocyte; fitted maximum relative to 100 uM glycine, saturating glutamate; read-out: Rel. efficacy (%) / 100 / 92.671
Description: as §2

Emax [4] [%]	Emax [5] [%]	Emax [6] [%]	Emax [7] [%]	SMILES	activity at 100 µM [1] [%]	activity at 100 µM [2] [%]	activity at 100 µM [3] [%]
47.3	22.8	93.9	96.5	Nc1ccc(-c2cn(C[C@@H](N)C(=O)O)nn2)cc1 [13f, (R)-2-Amino-3-(4-(4-aminophenyl)-1H-1,2,3-triazol-1-yl)propanoic acid]	–	–	–
65.5	55.7	96.9	87.5	N[C@H](Cn1cc(-c2cccnc2)nn1)C(=O)O [13g, (R)-2-Amino-3-(4-(pyridin-3-yl)-1H-1,2,3-triazol-1-yl)propanoic acid]	–	–	–
56.4	46.3	81.9	81.8	N[C@H](Cn1cc(-c2ccsc2)nn1)C(=O)O [13i, (R)-2-Amino-3-(4-(thiophen-3-yl)-1H-1,2,3-triazol-1-yl)propanoic acid]	–	–	–

Second part, the compound before the results:

SMILES	Emax [4] [%]	Emax [5] [%]	Emax [6] [%]	Emax [7] [%]	activity at 100 µM [1] [%]	activity at 100 µM [2] [%]	activity at 100 µM [3] [%]
N[C@H](Cn1cc(CCO)nn1)C(=O)O [13a, (R)-2-Amino-3-(4-(2-hydroxyethyl)-1H-1,2,3-triazol-1-yl)propanoic acid]	–	–	–	–	6.2	22	34
CCCCc1cn(C[C@@H](N)C(=O)O)nn1 [13b, (R)-2-Amino-3-(4-butyl-1H-1,2,3-triazol-1-yl)propanoic acid]	–	–	–	–	9.2	27	32
N[C@H](Cn1cc(Cc2ccccc2)nn1)C(=O)O [13c, (R)-2-Amino-3-(4-benzyl-1H-1,2,3-triazol-1-yl)propanoic acid]	–	–	–	–	–	12	5.9
